The record followed here is ChEMBL document CHEMBL1287691, “Pyrazole derivatives from azines of substituted phenacyl aryl/cyclohexyl sulfides and their antimycobacterial activity” (2010).

In brackets after ≈: the same amount, converted by molar mass.

One assay has as its system Mycobacterium tuberculosis. The assay can be described thus: Antimycobacterial activity against Mycobacterium tuberculosis H37Rv at 6.25 ug/ml. The format is functional.
In turn, `CC(=O)/C(=N/Nc1c(C)n[nH]c1C)C(=O)O` came in with an inhibition at 6.25 µg/mL of 29%. Same read-out and setting: the same measure for `COCC(=O)/C(=N/Nc1c(C)n[nH]c1C)C(=O)OC`: 28%.

For the next assay, the system named is Mycobacterium tuberculosis. The assay is described as follows: Antimycobacterial activity against Mycobacterium tuberculosis H37Rv by agar dilution method. The format is functional. (In agar dilution the substance is mixed into plates at graded concentrations.)
Regarding `NNC(=O)c1ccncc1` [ISONIAZID], 0.05 µg/mL (≈ 0.365 µM) was the least that counted as inhibitory (MIC). Still for that read-out and setting: the same measure for `Clc1ccc(S/C=C(\c2ccc3ccccc3c2)n2cc(Sc3ccc(Cl)cc3)c(-c3ccc4ccccc4c3)n2)cc1`: 6.25 µg/mL (≈ 9.89 µM). Same read-out and setting: the same measure for `COc1ccc(/C(=C\Sc2ccc(Cl)cc2)n2cc(Sc3ccc(Cl)cc3)c(-c3ccc(OC)cc3)n2)cc1`: 6.25 µg/mL (≈ 10.6 µM); for `Clc1ccc(/C(=C\Sc2ccccc2)n2cc(Sc3ccccc3)c(-c3ccc(Cl)cc3)n2)cc1`: 25 µg/mL (≈ 47 µM). Turning to `COc1ccc(/C(=C/SC2CCCCC2)n2cc(SC3CCCCC3)c(-c3ccc(OC)cc3)n2)cc1`, it took 12.5 µg/mL (≈ 23.4 µM) to inhibit growth (MIC). `Cc1ccc(/C(=C/SC2CCCCC2)n2cc(SC3CCCCC3)c(-c3ccc(C)cc3)n2)cc1` displayed an MIC of 6.25 µg/mL (≈ 12.4 µM). Turning to `Clc1ccc(S/C=C(/c2ccccc2)n2cc(Sc3ccc(Cl)cc3)c(-c3ccccc3)n2)cc1`, the MIC is greater than 25 µg/mL. The same measure, in the same setting: the same measure for `CC[C@@H](CO)NCCN[C@@H](CC)CO` [ETHAMBUTOL]: 1.56 µg/mL (≈ 7.64 µM); for `Cc1ccc(/C(=C\Sc2ccc(Cl)cc2)n2cc(Sc3ccc(Cl)cc3)c(-c3ccc(C)cc3)n2)cc1`: 6.25 µg/mL (≈ 11.2 µM); for `Clc1ccc(S/C=C(\c2ccccc2)n2cc(Sc3ccc(Cl)cc3)c(-c3ccccc3)n2)cc1`: 12.5 µg/mL (≈ 23.5 µM). As for `Clc1ccc(S/C=C(\c2ccc(Cl)cc2)n2cc(Sc3ccc(Cl)cc3)c(-c3ccc(Cl)cc3)n2)cc1`, it took 1.56 µg/mL (≈ 2.6 µM) to inhibit growth (MIC). Compound `C(/SC1CCCCC1)=C(\c1ccccc1)n1cc(SC2CCCCC2)c(-c2ccccc2)n1` returned an MIC of 12.5 µg/mL (≈ 26.3 µM). Still for that read-out and setting: for `COc1ccc(/C(=C\SC2CCCCC2)n2cc(SC3CCCCC3)c(-c3ccc(OC)cc3)n2)cc1` the value was 3.13 µg/mL (≈ 5.85 µM); for `Clc1ccc(/C(=C/Sc2ccccc2)n2cc(Sc3ccccc3)c(-c3ccc(Cl)cc3)n2)cc1`, greater than 25 µg/mL; for `Cc1ccc(S/C=C(\c2ccc(Cl)cc2)n2cc(Sc3ccc(C)cc3)c(-c3ccc(Cl)cc3)n2)cc1`, 12.5 µg/mL (≈ 22.3 µM). On the same count and under the same terms, for `Cc1ccc(S/C=C(/c2ccc(Cl)cc2)n2cc(Sc3ccc(C)cc3)c(-c3ccc(Cl)cc3)n2)cc1` the value was 12.5 µg/mL (≈ 22.3 µM). Take `C(/SC1CCCCC1)=C(/c1ccccc1)n1cc(SC2CCCCC2)c(-c2ccccc2)n1`: 6.25 µg/mL (≈ 13.2 µM) was the least that counted as inhibitory (MIC). Same read-out and setting: the same measure for `Clc1ccc(/C(=C\SC2CCCCC2)n2cc(SC3CCCCC3)c(-c3ccc(Cl)cc3)n2)cc1`: 1.56 µg/mL (≈ 2.87 µM); for `O=[N+]([O-])c1ccc(/C(=C/SC2CCCCC2)n2cc(SC3CCCCC3)c(-c3ccc([N+](=O)[O-])cc3)n2)cc1`: 1.56 µg/mL (≈ 2.76 µM). As for `Clc1ccc(S/C=C(/c2ccc3ccccc3c2)n2cc(Sc3ccc(Cl)cc3)c(-c3ccc4ccccc4c3)n2)cc1`, the MIC stood at 12.5 µg/mL (≈ 19.8 µM). This MIC lies about 8-fold higher than the previous one. `Cc1ccc(/C(=C\SC2CCCCC2)n2cc(SC3CCCCC3)c(-c3ccc(C)cc3)n2)cc1`: the MIC came to 3.13 µg/mL (≈ 6.23 µM).

`O=[N+]([O-])c1ccc(/C(=C\SC2CCCCC2)n2cc(SC3CCCCC3)c(-c3ccc([N+](=O)[O-])cc3)n2)cc1` had an MIC of 0.78 µg/mL (≈ 1.38 µM). Take `NC(=O)c1cnccn1` [PYRAZINAMIDE]: the MIC was found to be 6.25 µg/mL (≈ 50.8 µM). The compound `Clc1ccc(S/C=C(/c2ccc(Cl)cc2)n2cc(Sc3ccc(Cl)cc3)c(-c3ccc(Cl)cc3)n2)cc1` came in with an MIC of 3.13 µg/mL (≈ 5.21 µM).

Usually inhibition stands for the drop in the measured response relative to a control, in per cent. The low end stands for a response near the control, the high end for a response far below the control. One may read the MIC as the lowest concentration found to suppress growth. Lower therefore signals greater potency.
